From patent publication US12630528B2, “Amino aryl derivative useful as diacylglycerol acyltransferase 2 inhibitor and use thereof” (LG CHEM, LTD., priority 2019, dated 2026)

Target: T1, human DGAT2 (Homo sapiens, UniProt Q96PD7)
T1 construct: FLAG (DYKDDDDK); made in house; host or cells: Sf-21 insect cells (BacPAK baculovirus system); membrane fraction used
T1 sequence (Q96PD7 1-388): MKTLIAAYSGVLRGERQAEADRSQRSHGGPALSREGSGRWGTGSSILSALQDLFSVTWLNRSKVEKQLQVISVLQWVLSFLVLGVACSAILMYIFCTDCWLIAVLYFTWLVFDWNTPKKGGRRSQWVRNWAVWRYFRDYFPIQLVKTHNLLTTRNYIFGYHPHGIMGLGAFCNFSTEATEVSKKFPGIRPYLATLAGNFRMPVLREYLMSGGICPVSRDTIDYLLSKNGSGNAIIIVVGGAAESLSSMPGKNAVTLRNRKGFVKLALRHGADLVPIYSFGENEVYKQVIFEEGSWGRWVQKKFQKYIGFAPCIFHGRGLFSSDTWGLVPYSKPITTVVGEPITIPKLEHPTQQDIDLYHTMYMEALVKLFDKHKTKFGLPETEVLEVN
Experiment: DGAT2 enzyme activity inhibition, Phospholipid FlashPlate SPA
Format: biochemical
Conditions: recombinant human DGAT2 membrane protein from Sf-21 cells; inhibition of [14C]-TG production; 37° C.
Procedure, shortened: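 Sf-21 membranes expressing recombinant human DGAT2 (2 μg) preincubated with compound (3 nM–10 μM, 1% DMSO) and 50 μM 1,2 sn-oleoyl glycerol, 20 min at 37 °C, then 1 μM [14C]oleoyl-CoA for 15 min. [14C]-TG counted by SPA; inhibition as % of untreated.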

| IC50 | SMILES |
| --- | --- |
| 490 nM | CCOc1cccnc1O[C@@H]1CCCN(c2cncc(Nc3ccc(F)c(-c4cc(CC(C)(C)C(=O)O)ccc4F)n3)n2)C1 [Example 106, (R)-3-(3-(6-((6-(3-((3-ethoxypyridin-2-yl)oxy)piperidin-1-yl)pyrazin-2-yl)amino)-3-fluoropyridin-2-yl)-4-fluorophenyl)-2,2-dimethylpropanoic Acid] |
| > 10000 nM | CCOc1ccccc1O[C@@H]1CCCN(c2cncc(Nc3ccc(C(=O)O)cn3)n2)C1 [Example 32, (R)-6-((6-(3-(2-ethoxyphenoxy)piperidin-1-yl)pyrazin-2-yl)amino)nicotinic Acid] |
| 410 nM | CCOc1cccnc1O[C@@H]1CCCN(c2ccnc(Nc3nccc(C(C)(C)C(=O)O)n3)n2)C1 [Example 116] |
| 2300 nM | CCOc1ccccc1O[C@@H]1CCCN(c2cncc(Nc3nc(-c4ccccc4)co3)n2)C1 [Example 9, (R)—N-(6-(3-(2-ethoxyphenoxy)piperidin-1-yl)pyrazin-2-yl)-4-phenyloxazol-2-amine] |
| 250 nM | CCOc1ccccc1O[C@@H]1CCCN(c2cncc(Nc3cccc(-c4ccc(NC(C)(C)C(=O)O)cc4)n3)n2)C1 [Example 77, (R)-2-((4-(6-((6-(3-(2-ethoxyphenoxy)piperidin-1-yl)pyrazin-2-yl)amino)pyridin-2-yl)phenyl)amino)-2-methylpropanoic Acid] |
| 220 nM | CCOc1cccnc1O[C@@H]1CCCN(c2cncc(Nc3ccnc(-c4ccc(CC(C)(C)C(=O)O)cc4)n3)n2)C1 [Example 173, (R)-3-(4-(4-((6-(3-((3-ethoxypyridin-2-yl)oxy)piperidin-1-yl)pyrazin-2-yl)amino)pyrimidin-2-yl)phenyl)-2,2-dimethylpropanoic Acid] |
| 300 nM | CCOc1cccnc1O[C@@H]1CCCN(c2cncc(Nc3nccc(O[C@H]4CC[C@H](C(=O)O)CC4)n3)n2)C1 [Example 136, (1R,4r)-4-((2-((6-((R)-3-((3-ethoxypyridin-2-yl)oxy)piperidin-1-yl)pyrazin-2-yl)amino)pyrimidin-4-yl)oxy)cyclohexane-1-carboxylic Acid] |
| 250 nM | CCOc1ccccc1O[C@@H]1CCCN(c2cncc(Nc3ccnc(-c4ccc(CC(C)(C)C(=O)O)cc4)n3)n2)C1 [Example 172, (R)-3-(4-(4-((6-(3-(2-ethoxyphenoxy)piperidin-1-yl)pyrazin-2-yl)amino)pyrimidin-2-yl)phenyl)-2,2-dimethylpropanoic Acid] |
| 2400 nM | CCOc1ccccc1O[C@@H]1CCCN(c2cncc(Nc3cccc(-c4ccc(CC(C)(C)C(=O)O)cc4)c3)n2)C1 [Example 30, (R)-3-(3′-((6-(3-(2-ethoxyphenoxy)piperidin-1-yl)pyrazin-2-yl)amino)-[1,1′-biphenyl]-4-yl)-2,2-dimethylpropanoic Acid] |
| 1300 nM | CCOc1ccccc1O[C@@H]1CCCN(c2cncc(Nc3nc4ccc(C(C)(C)C(=O)O)cc4o3)n2)C1 [Example 17, (R)-2-(2-((6-(3-(2-ethoxyphenoxy)piperidin-1-yl)pyrazin-2-yl)amino)benzo[d]oxazol-6-yl)-2-methylpropanoic Acid] |
| 770 nM | CCOc1ccccc1O[C@@H]1CCCN(c2cncc(Nc3cc(-c4ccc(CC(C)(C)C(=O)O)cc4)ccn3)n2)C1 [Example 45, (R)-3-(4-(2-((6-(3-(2-ethoxyphenoxy)piperidin-1-yl)pyrazin-2-yl)amino)pyridin-4-yl)phenyl)-2,2-dimethylpropanoic Acid] |
| 170 nM | CCOc1ccccc1O[C@@H]1CCCN(c2cncc(Nc3cc(C(F)(F)F)cc(-c4cccc(CC(C)(C)C(=O)O)c4)n3)n2)C1 [Example 110, (R)-3-(3-(6-((6-(3-(2-ethoxyphenoxy)piperidin-1-yl)pyrazin-2-yl)amino)-4-(trifluoromethyl)pyridin-2-yl)phenyl)-2,2-dimethylpropanoic Acid] |
| 220 nM | CCOc1ccccc1O[C@@H]1CCCN(c2cncc(Nc3cccc(-c4cccc(C(C)(C)C(=O)O)c4)n3)n2)C1 [Example 60, (R)-2-(3-(6-((6-(3-(2-ethoxyphenoxy)piperidin-1-yl)pyrazin-2-yl)amino)pyridin-2-yl)phenyl)-2-methylpropanoic Acid] |
| 590 nM | CCOc1ccccc1O[C@@H]1CCCN(c2cncc(Nc3nccc(N4CCC[C@@H](C(=O)O)C4)n3)n2)C1 [Example 121, (R)-1-(2-((6-((R)-3-(2-ethoxyphenoxy)piperidin-1-yl)pyrazin-2-yl)amino)pyrimidin-4-yl)piperidine-3-carboxylic Acid] |
| 400 nM | CCOc1ccccc1O[C@@H]1CCCN(c2cncc(Nc3cccc(-c4cc(OC(C)(C)C(=O)O)ccc4F)n3)n2)C1 [Example 84, (R)-2-(3-(6-((6-(3-(2-ethoxyphenoxy)piperidin-1-yl)pyrazin-2-yl)amino)pyridin-2-yl)-4-fluorophenoxy)-2-methylpropanoic Acid] |
| 150 nM | CCOc1cccnc1O[C@@H]1CCCN(c2cncc(Nc3nccc(-c4cccc(CC(C)(C)C(=O)O)c4)n3)n2)C1 [Example 147, (R)-3-(3-(2-((6-(3-((3-ethoxypyridin-2-yl)oxy)piperidin-1-yl)pyrazin-2-yl)amino)pyrimidin-4-yl)phenyl)-2,2-dimethylpropanoic Acid] |
| 470 nM | CCOc1cccnc1O[C@@H]1CCCN(c2cncc(Nc3nc(-c4cccc(CC(C)(C)C(=O)O)c4)cc(C(F)(F)F)n3)n2)C1 [Example 166, (R)-3-(3-(2-((6-(3-((3-ethoxypyridin-2-yl)oxy)piperidin-1-yl)pyrazin-2-yl)amino)-6-(trifluoromethyl)pyrimidin-4-yl)phenyl)-2,2-dimethylpropanoic Acid] |
| 170 nM | CCOc1ccccc1O[C@@H]1CCCN(c2cncc(Nc3cccc(Oc4ccc(C(C)(C)C(=O)O)cc4)n3)n2)C1 [Example 93, (R)-2-(4-((6-((6-(3-(2-ethoxyphenoxy)piperidin-1-yl)pyrazin-2-yl)amino)pyridin-2-yl)oxy)phenyl)-2-methylpropanoic Acid] |
| 1200 nM | CCOc1ccccc1O[C@@H]1CCCN(c2ccnc(Nc3nccc(-c4cccc(CC(C)(C)C(=O)O)c4)n3)n2)C1 [Example 150, (R)-3-(3-(2-((4-(3-(2-ethoxyphenoxy)piperidin-1-yl)pyrimidin-2-yl)amino)pyrimidin-4-yl)phenyl)-2,2-dimethylpropanoic Acid] |
| 200 nM | CCOc1cccnc1O[C@@H]1CCCN(c2cncc(Nc3cccc(-c4cccc(OC(C)(C)C(=O)O)c4)n3)n2)C1 [Example 81, (R)-2-(3-(6-((6-(3-((3-ethoxypyridin-2-yl)oxy)piperidin-1-yl)pyrazin-2-yl)amino)pyridin-2-yl)phenoxy)-2-methylpropanoic Acid] |
| 71 nM | CCOc1ccccc1O[C@@H]1CCCN(c2cncc(Nc3cccc(-c4cccc(CC(C)(C)C(=O)O)c4)n3)n2)C1 [Example 63, (R)-3-(3-(6-((6-(3-(2-ethoxyphenoxy)piperidin-1-yl)pyrazin-2-yl)amino)pyridin-2-yl)phenyl)-2,2-dimethylpropanoic Acid] |
| 490 nM | CCOc1cccnc1O[C@@H]1CCCN(c2cncc(Nc3cccc(Oc4ccc(CC(=O)O)cc4)n3)n2)C1 [Example 98, (R)-2-(4-((6-((6-(3-((3-ethoxypyridin-2-yl)oxy)piperidin-1-yl)pyrazin-2-yl)amino)pyridin-2-yl)oxy)phenyl)acetic Acid] |
| 2000 nM | CCOc1ccccc1O[C@@H]1CCCN(c2cncc(Nc3nccc(N4CCC(C(=O)O)C4)n3)n2)C1 (stereo partly drawn) [Example 118, 1-(2-((6-((R)-3-(2-ethoxyphenoxy)piperidin-1-yl)pyrazin-2-yl)amino)pyrimidin-4-yl)pyrrolidine-3-carboxylic Acid] |
| 300 nM | CCOc1cccnc1O[C@@H]1CCCN(c2cncc(Nc3cccc(Oc4cccc(C(C)(C)C(=O)O)c4)n3)n2)C1 [Example 92, (R)-2-(3-((6-((6-(3-((3-ethoxypyridin-2-yl)oxy)piperidin-1-yl)pyrazin-2-yl)amino)pyridin-2-yl)oxy)phenyl)-2-methylpropanoic Acid] |
| 6700 nM | CCOc1ccccc1O[C@@H]1CCCN(c2cncc(Nc3nccc(N4CCC[C@@H](OCC(=O)O)C4)n3)n2)C1 [Example 132, 2-(((R)-1-(2-((6-((R)-3-(2-ethoxyphenoxy)piperidin-1-yl)pyrazin-2-yl)amino)pyrimidin-4-yl)piperidin-3-yl)oxy)acetic Acid] |
| 780 nM | CCOc1cccnc1O[C@@H]1CCCN(c2cncc(Nc3nccc(O[C@H]4CC[C@@H](C(=O)O)CC4)n3)n2)C1 [Example 138, (1S,4s)-4-((2-((6-((R)-3-((3-ethoxypyridin-2-yl)oxy)piperidin-1-yl)pyrazin-2-yl)amino)pyrimidin-4-yl)oxy)cyclohexane-1-carboxylic Acid] |
| 320 nM | CCOc1ccccc1O[C@@H]1CCCN(c2cncc(Nc3ncc(F)c(-c4cccc(CC(C)(C)C(=O)O)c4)n3)n2)C1 [Example 164, (R)-3-(3-(2-((6-(3-(2-ethoxyphenoxy)piperidin-1-yl)pyrazin-2-yl)amino)-5-fluoropyrimidin-4-yl)phenyl)-2,2-dimethylpropanoic Acid] |
| 6100 nM | CCOc1ccccc1O[C@@H]1CCCN(c2cncc(Nc3nccc(N4CCCC(C)(C(=O)O)C4)n3)n2)C1 (stereo partly drawn) [Example 122, 1-(2-((6-((R)-3-(2-ethoxyphenoxy)piperidin-1-yl)pyrazin-2-yl)amino)pyrimidin-4-yl)-3-methylpiperidine-3-carboxylic Acid] |
